These results are taken from patent US10118930B2, “Piperidinylpyrazolopyrimidinones and their use” (BAYER PHARMA AKTIENGESELLSCHAFT, priority 2015, dated 2018).

The subject of the assay is clot lysis (fibrinolysis) in diluted human citrated plasma, tPA-induced. In words: Plasma-based clot lysis assay (5%). Type of assay: biochemical. The following applies: human citrated platelet-poor plasma 5%, fibrinogen 3 μM, CaCl2 10 mM, tPA 0.2 nM, 37° C., OD at 405 nm. Summed up: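 Clot formation and breakdown triggered by CaCl2 (10 mM final) plus tPA (0.2 nM final) at 37° C, in 5% diluted human plasma supplemented with 3 μM fibrinogen (HEPES/NaCl/Brij buffer, pH 7). IC50 obtained from time courses relative to a blank control.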

Counter-ions that a name gives are not always drawn.

For the compound `Cc1nn2c(C3CCNCC3)cc(=O)[nH]c2c1-c1nc(-c2cccc(Cl)c2)no1` [Example 441, 3-[3-(3-chlorophenyl)-1,2,4-oxadiazol-5-yl]-2-methyl-7-(piperidin-4-yl)pyrazolo[1,5-a]pyrimidin-5(4H)-one hydrochloride], half-maximal inhibition (IC50) required 0.029 µM.
Still for that read-out and setting: the result for `Cc1nn2c(C3CCNCC3)cc(=O)[nH]c2c1-c1nc(-c2ccc(C(F)(F)F)cc2)no1` [Example 442, 2-methyl-7-(piperidin-4-yl)-3-{3-[4-(trifluoromethyl)phenyl]-1,2,4-oxadiazol-5-yl}pyrazolo[1,5-a]pyrimidin-5(4H)-one hydrochloride] reads 0.027 µM.
Same read-out and setting: in the case of `COc1c(F)cc(Cc2nnc(-c3cnn4c(C5CCNCC5)cc(=O)[nH]c34)o2)cc1F` [Example 444, 3-[5-(3,5-difluoro-4-methoxybenzyl)-1,3,4-oxadiazol-2-yl]-7-(piperidin-4-yl)pyrazolo[1,5-a]pyrimidin-5(4H)-one hydrochloride] it was 0.017 µM; in that of `Cc1nn2c(C3CCNCC3)cc(=O)[nH]c2c1-c1nnc(-c2ccccc2F)o1` [Example 445, 3-[5-(2-fluorophenyl)-1,3,4-oxadiazol-2-yl]-2-methyl-7-(piperidin-4-yl)pyrazolo[1,5-a]pyrimidin-5(4H)-one hydrochloride], 0.056 µM.
Still for that read-out and setting: in the case of `Cc1nn2c(C3CCNCC3)cc(=O)[nH]c2c1-c1nc(Cc2ccc(O)cc2)no1` [Example 446, 3-[3-(4-hydroxybenzyl)-1,2,4-oxadiazol-5-yl]-2-methyl-7-(piperidin-4-yl)pyrazolo[1,5-a]pyrimidin-5(4H)-one hydrochloride] it was 0.01 µM; in that of `COc1ccc(Cc2nnc(-c3cnn4c(C5CCNCC5)cc(=O)[nH]c34)o2)cc1F` [Example 447, 3-[5-(3-fluoro-4-methoxybenzyl)-1,3,4-oxadiazol-2-yl]-7-(piperidin-4-yl)pyrazolo[1,5-a]pyrimidin-5(4H)-one hydrochloride], 0.014 µM.
`Cc1ccccc1-c1csc(-c2cnn3c(C4CCNCC4)cc(=O)[nH]c23)n1` [Example 448, 3-[4-(2-methylphenyl)-1,3-thiazol-2-yl]-7-(piperidin-4-yl)pyrazolo[1,5-a]pyrimidin-5(4H)-one acetate]: for the setting “acetate”, the IC50 came out at 0.03 µM.
Turning to `C=C(C)c1cnn2c(C3CCNCC3)cc(=O)[nH]c12` [Example 449, 7-(piperidin-4-yl)-3-(prop-1-en-2-yl)pyrazolo[1,5-a]pyrimidin-5 (4H)-one hydrochloride], 0.055 µM corresponded to half-maximal inhibition (IC50).
For the compound `O=C(c1cnn2c(C3CCNCC3)cc(=O)[nH]c12)C1CCCC1` [Example 451, 3-(cyclopentylcarbonyl)-7-(piperidin-4-yl)pyrazolo[1,5-a]pyrimidin-5(4H)-one hydrochloride], the IC50 worked out at 0.011 µM.
As for `CCC(C)C(=O)c1cnn2c(C3CCNCC3)cc(=O)[nH]c12` (centres unmarked) [Example 452, 3-(2-methylbutanoyl)-7-(piperidin-4-yl)pyrazolo[1,5-a]pyrimidin-5 (4H)-one hydrochloride], 0.008 µM corresponded to half-maximal inhibition (IC50).
Same read-out and setting: in the case of `O=C(c1cnn2c(C3CCNCC3)cc(=O)[nH]c12)C1CC1` [Example 453, 3-(cyclopropylcarbonyl)-7-(piperidin-4-yl)pyrazolo[1,5-a]pyrimidin-5(4H)-one hydrochloride] it was 0.008 µM; in that of `COC(=O)c1c(C(F)(F)F)nn2c(C3CCNCC3)cc(=O)[nH]c12` [Example 454, Methyl 5-oxo-7-(piperidin-4-yl)-2-(trifluoromethyl)-4,5-dihydropyrazolo[1,5-a]pyrimidine-3-carboxylate hydrochloride], 0.034 µM; in that of `CCOC(=O)c1c(SC)nn2c(C3CCNCC3)cc(=O)[nH]c12` [Example 455, Ethyl 2-(methylsulfanyl)-5-oxo-7-(piperidin-4-yl)-4,5-dihydropyrazolo[1,5-a]pyrimidine-3-carboxylate hydrochloride], 0.036 µM.
Same read-out and setting: in the case of `CC(C)(C)C(=O)c1cnn2c(C3CCNCC3)cc(=O)[nH]c12` [Example 456, 3-(2,2-dimethylpropanoyl)-7-(piperidin-4-yl)pyrazolo[1,5-a]pyrimidin-5(4H)-one hydrochloride] it was 0.039 µM; in that of `O=C(O)c1c(C(F)(F)F)nn2c(C3CCNCC3)cc(=O)[nH]c12` [Example 457, 5-oxo-7-(piperidin-4-yl)-2-(trifluoromethyl)-4,5-dihydropyrazolo[1,5-a]pyrimidine-3-carboxylic acid hydrochloride], 0.085 µM; in that of `CCOC(=O)c1c(C(F)(F)F)nn2c(C3CCNCC3)cc(=O)[nH]c12` [Example 458, Ethyl 5-oxo-7-(piperidin-4-yl)-2-(trifluoromethyl)-4,5-dihydropyrazolo[1,5-a]pyrimidine-3-carboxylate hydrochloride], 0.13 µM.
The same measure, in the same setting: the result for `CCCOC(=O)c1c(C(F)(F)F)nn2c(C3CCNCC3)cc(=O)[nH]c12` [Example 459, Propyl 5-oxo-7-(piperidin-4-yl)-2-(trifluoromethyl)-4,5-dihydropyrazolo[1,5-a]pyrimidine-3-carboxylate hydrochloride] reads 0.083 µM; that for `CC(C)OC(=O)c1c(C(F)(F)F)nn2c(C3CCNCC3)cc(=O)[nH]c12` [Example 460, Propan-2-yl 5-oxo-7-(piperidin-4-yl)-2-(trifluoromethyl)-4,5-dihydropyrazolo[1,5-a]pyrimidine-3-carboxylate hydrochloride], 0.059 µM.
In the case of `Cc1nn2c(C3CCNCC3)cc(=O)[nH]c2c1C(=O)OCC(C)(F)F` [Example 461, 2,2-difluoropropyl 2-methyl-5-oxo-7-(piperidin-4-yl)-4,5-dihydropyrazolo[1,5-a]pyrimidine-3-carboxylate hydrochloride], inhibition was half-maximal at 0.061 µM (IC50).
The same measure, in the same setting: in the case of `CC1(C)CCN(C(=O)c2cnn3c(C4CCNCC4)cc(=O)[nH]c23)C1` [Example 462, 3-[(3,3-dimethylpyrrolidin-1-yl)carbonyl]-7-(piperidin-4-yl)pyrazolo[1,5-a]pyrimidin-5 (4H)-one hydrochloride] it was 0.034 µM.
The same measure, in the same setting: in the case of `CC(F)(F)COC(=O)c1cnn2c(C3CCNCC3)cc(=O)[nH]c12` [Example 463, 2,2-difluoropropyl 5-oxo-7-(piperidin-4-yl)-4,5-dihydropyrazolo[1,5-a]pyrimidine-3-carboxylate hydrochloride] it was 0.051 µM; in that of `Cc1nn2c(C3CCNCC3)cc(=O)[nH]c2c1C(=O)OCCCF` [Example 464, 3-fluoropropyl 2-methyl-5-oxo-7-(piperidin-4-yl)-4,5-dihydropyrazolo[1,5-a]pyrimidine-3-carboxylate hydrochloride], 0.13 µM; in that of `Cc1nn2c(C3CCNCC3)cc(=O)[nH]c2c1C(=O)OCC(F)F` [Example 465, 2,2-difluoroethyl 2-methyl-5-oxo-7-(piperidin-4-yl)-4,5-dihydropyrazolo[1,5-a]pyrimidine-3-carboxylate hydrochloride], 0.04 µM.
Same read-out and setting: in the case of `Cc1nn2c(C3CCNCC3)cc(=O)[nH]c2c1C(=O)OCCC(F)(F)F` [Example 466, 3,3,3-trifluoropropyl 2-methyl-5-oxo-7-(piperidin-4-yl)-4,5-dihydropyrazolo[1,5-a]pyrimidine-3-carboxylate hydrochloride] it was 0.085 µM.
As for `Cc1nn2c(C3CCNCC3)cc(=O)[nH]c2c1C(=O)OC(C)(C)C` [Example 468, Tert-butyl 2-methyl-5-oxo-7-(piperidin-4-yl)-4,5-dihydropyrazolo[1,5-a]pyrimidine-3-carboxylate hydrochloride], it took 0.039 µM to reach half-maximal inhibition (IC50).
The same measure, in the same setting: the result for `CSc1nn2c(C3CCNCC3)cc(=O)[nH]c2c1C(=O)O` [Example 469, 2-(methylsulfanyl)-5-oxo-7-(piperidin-4-yl)-4,5-dihydropyrazolo[1,5-a]pyrimidine-3-carboxylic acid hydrochloride] reads 0.16 µM.
